Experimental data taken from paper PMC4301629 (PLoS ONE, 2015).

Legend:
CCR5_CHO cells = assay: Ca2+ transient response in CCR5_CHO negative control cells; format: cell-based, Chinese hamster; settings: S4 Fig.
Protocol: Cells were resuspended in Hank’s balanced salt solution (Invitrogen) supplemented with 2 mM CaCl2, 10 mM HEPES pH 7.4, 2.5 mM probenecid, plus 1g/L each of glucose and bovine serum albumin (BSA), and seeded in poly-D-lysine coated 96-well black plates with transparent bottom (Costar) at a density of 50,000 cells/0.1 mL per well. Cells were then incubated for 1 h at 37°C with an additional 0.1 mL of buffer containing 4 μM fluo3-AM that was diluted from a stock solution containing 1 mM fluo3-AM dye in DMSO with 10% pluronic acid. After dye loading incubation, plates were washed twice with 100 μL of buffer and refilled with 100 μL of assay buffer. In experiments testing the effect of antagonists, 25 μL of buffer from wells of washed cells were replaced with 25 μL of vehicle or 4× antagonist solution. […] Agonist-evoked Ca^2+ mobilization responses of cell populations were monitored at room temperature simultaneously in all wells of the assay plate using the plate-imaging fluorometric reader FLIPR (MDS Analytical Technologies, Sunnyvale, CA). Measurements consisted of recording baseline fluorescence signal for 10 seconds followed by addition of the test substance and 1–2 minute readings of Ca^2+ transient responses as reported by changes in Ca^2+ dye fluorescence (excitation 488 nm, emission 510–570 nm). […]

α1A-AR = biological target: T1, α1A-AR (Homo sapiens, UniProt P35348); assay: Translocation of GFP-tagged β-arrestin-1/2 in HEK293 cells expressing FLAG-α1A-AR (confocal microscopy); format: cell-based; parameters: expressed in transfected cells; host or cells: HEK-293/EBNA (baculovirus transduction, NaBu induction); settings: HEK293, 1 μM A-61603 or 1 mM Iso
T1 sequence (P35348 1-466): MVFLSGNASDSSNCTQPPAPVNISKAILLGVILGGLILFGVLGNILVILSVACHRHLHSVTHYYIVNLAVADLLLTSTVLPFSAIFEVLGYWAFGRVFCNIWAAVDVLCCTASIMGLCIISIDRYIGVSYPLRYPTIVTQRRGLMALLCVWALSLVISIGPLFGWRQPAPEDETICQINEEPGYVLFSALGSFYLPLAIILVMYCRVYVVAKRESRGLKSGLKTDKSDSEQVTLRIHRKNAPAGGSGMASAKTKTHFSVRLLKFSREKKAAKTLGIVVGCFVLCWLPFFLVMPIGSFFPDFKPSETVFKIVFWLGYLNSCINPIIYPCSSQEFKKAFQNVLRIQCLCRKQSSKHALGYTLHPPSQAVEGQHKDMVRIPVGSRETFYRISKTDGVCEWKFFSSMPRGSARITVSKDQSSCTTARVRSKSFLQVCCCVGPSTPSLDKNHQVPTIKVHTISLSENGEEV
Protocol: HEK293 cells were transiently co-transfected with FLAG-tagged α1A – AR and one of the following GFP-tagged proteins: Rab5 (Rab5 Q79L) variant, Rab11 (Rab11 S25N) variant, β-arrestin-1 or β-arrestin-2. Rab5 and Rab11 were kindly provided by Dr. Marino Zerial (Max Planck Institute of Molecular Cell Biology and Genetics, Dresden, Germany). […] After treatment, cells were fixed with freshly prepared 3.7% paraformaldehyde in PBS for 15 min at room temperature. Subsequently, cells were permeabilized with 0.1% Triton X-100 (Sigma-Aldrich) in PBS for 5 min, followed by nonspecific binding site blocking with 3% normal serum (Santa Cruz Biotechnology) in PBS for 1 h. Incubation with Alexa Fluor-568 conjugated anti-FLAG antibodies in blocking solution was done as directed by the manufacturer. Confocal microscopy was performed using a Zeiss LSM 510 META laser scanning microscope (Carl Zeiss, Inc., Thornwood, NY) equipped with a 60X objective, using the following laser wavelengths: excitation at 488 nm and emission at 505–530 nm; excitation at 543 nm and emission at 560–615 nm.
HEK293 cells were co-transfected with FLAG-tagged α1A – AR and GFP- tagged β-arrestin-1 (left panels) or β-arrestin-2 (right panels). […] Cells were then fixed, permeabilized, stained with Alexa Fluor-568 conjugated anti-FLAG antibodies, and analyzed employing confocal microscopy.

CC(C)NCC(O)c1ccc(O)c(O)c1 (centres unmarked) [Iso, isoproterenol]
Ca2+ transient response (CCR5_CHO cells): not observed
translocation of β-arrestin-1 / β-arrestin-2 (α1A-AR): did not cause visible β-arrestin rearrangement
